Converted amounts (≈) assume the structure as drawn.
Key:
[1] = test system: E. coli ATCC 25922; test: MIC, broth microdilution; type: cell-based; conditions: Escherichia coli, ATCC25922, read-out: MIC E. coli ATCC 25922
[2] = test system: P. aeruginosa ATCC 27853; test: MIC, broth microdilution; type: cell-based; conditions: Pseudomonas aeruginosa, ATCC27853, read-out: MIC P. aeruginosa ATCC 27853
[3] = test system: K. aerogenes ATCC 13408; test: MIC, broth microdilution; type: cell-based; conditions: Klebsiella aerogenes, ATCC13408, read-out: MIC K. aerogenes ATCC 13408
[4] = test system: A. baumannii ATCC 19606; test: MIC, broth microdilution; type: cell-based; conditions: Acinetobacter baumannii, ATCC19606, read-out: MIC A. baumannii ATCC 19606
[5] = test system: S. aureus ATCC 29213; test: MIC, broth microdilution; type: cell-based, Staphylococcus aureus; conditions: Staphylococcus aureus, ATCC29213, read-out: MIC S. aureus ATCC 29213, broth microdilution
[6] = test system: K. pneumoniae ATCC 10031; test: MIC, broth microdilution; type: cell-based; conditions: Klebsiella pneumoniae, ATCC10031, read-out: MIC K. pneumoniae ATCC 10031
[7] = target: S. aureus DNA gyrase (Staphylococcus aureus, UniProt P0A0K8); test: DNA gyrase supercoiling plate assay; type: biochemical; conditions: for remaining activity at 1 µM: read-out: RA (residual activity) S. aureus gyrase
[8] = target: E. coli DNA gyrase (Escherichia coli, UniProt P0AES6); test: DNA gyrase supercoiling plate assay; type: biochemical; conditions: IC50 E. coli gyrase, supercoiling assay
[9] = test system: K. pneumoniae ATCC 700603; test: MIC, broth microdilution; type: cell-based; conditions: Klebsiella pneumoniae, ATCC700603, read-out: MIC K. pneumoniae ATCC 700603
[10] = target: E. coli topoisomerase IV (Escherichia coli, UniProt P20083); test: topoisomerase IV relaxation plate assay; type: biochemical; conditions: for remaining activity at 1 µM / remaining activity at 10 µM: read-out: RA (residual activity) E. coli topo IV
Chain of E. coli topoisomerase IV (P20083 whole entry): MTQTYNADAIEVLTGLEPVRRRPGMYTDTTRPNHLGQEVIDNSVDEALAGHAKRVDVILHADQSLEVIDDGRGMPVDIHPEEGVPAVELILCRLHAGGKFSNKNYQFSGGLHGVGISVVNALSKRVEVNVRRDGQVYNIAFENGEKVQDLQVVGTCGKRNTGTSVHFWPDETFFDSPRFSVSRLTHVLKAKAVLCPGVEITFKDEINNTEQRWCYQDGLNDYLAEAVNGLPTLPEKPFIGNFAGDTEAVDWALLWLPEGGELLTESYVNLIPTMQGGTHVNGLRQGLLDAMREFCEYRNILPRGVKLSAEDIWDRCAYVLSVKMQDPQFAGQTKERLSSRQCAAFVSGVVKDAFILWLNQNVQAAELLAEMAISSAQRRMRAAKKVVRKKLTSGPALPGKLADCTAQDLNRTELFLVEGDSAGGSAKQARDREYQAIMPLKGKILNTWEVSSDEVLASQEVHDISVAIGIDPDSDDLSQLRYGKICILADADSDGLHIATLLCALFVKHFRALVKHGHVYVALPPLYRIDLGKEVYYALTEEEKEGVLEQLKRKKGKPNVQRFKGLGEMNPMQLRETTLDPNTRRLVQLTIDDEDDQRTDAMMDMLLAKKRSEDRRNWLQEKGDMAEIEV
Chain of E. coli topoisomerase IV (P0AFI2 whole entry partner): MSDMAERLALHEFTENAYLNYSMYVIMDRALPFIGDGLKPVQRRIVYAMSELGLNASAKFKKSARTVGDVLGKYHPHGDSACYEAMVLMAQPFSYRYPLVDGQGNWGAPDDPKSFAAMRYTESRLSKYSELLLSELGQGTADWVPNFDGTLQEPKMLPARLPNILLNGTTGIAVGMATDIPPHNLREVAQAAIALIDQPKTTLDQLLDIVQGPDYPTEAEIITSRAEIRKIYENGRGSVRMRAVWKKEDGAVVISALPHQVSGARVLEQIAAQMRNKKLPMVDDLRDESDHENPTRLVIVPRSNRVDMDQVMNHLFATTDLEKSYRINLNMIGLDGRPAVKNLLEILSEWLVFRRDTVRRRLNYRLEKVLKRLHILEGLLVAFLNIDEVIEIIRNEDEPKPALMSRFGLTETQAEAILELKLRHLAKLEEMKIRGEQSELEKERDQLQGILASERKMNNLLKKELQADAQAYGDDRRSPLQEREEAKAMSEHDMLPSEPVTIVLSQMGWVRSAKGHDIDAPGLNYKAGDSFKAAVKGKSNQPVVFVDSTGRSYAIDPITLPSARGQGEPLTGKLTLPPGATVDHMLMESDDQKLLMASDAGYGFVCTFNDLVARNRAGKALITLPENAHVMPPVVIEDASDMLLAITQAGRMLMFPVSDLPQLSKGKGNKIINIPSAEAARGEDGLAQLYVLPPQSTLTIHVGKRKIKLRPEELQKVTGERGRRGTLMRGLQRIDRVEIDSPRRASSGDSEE

[11] = test system: E. spp. cloacae ATCC 13047; test: MIC, broth microdilution; type: cell-based; conditions: read-out: MIC E. spp. cloacae ATCC 13047
[12] = test system: MRSA clinical isolate-2; test: MIC against fluoroquinolone-resistant clinical isolate; type: cell-based; conditions: Staphylococcus aureus, read-out: MIC MRSA clinical isolate-2
[13] = test system: MRSA clinical isolate-1; test: as above; type: cell-based; conditions: Staphylococcus aureus, read-out: MIC MRSA clinical isolate-1
[14] = test system: S. aureus ATCC 43300 (MRSA); test: MIC, broth microdilution; type: cell-based; conditions: Staphylococcus aureus, ATCC43300|MRSA, read-out: MIC S. aureus ATCC 43300 (MRSA)
[15] = test system: E. faecalis ATCC 29212; test: MIC, broth microdilution; type: cell-based; conditions: Enterococcus faecalis, ATCC29212, read-out: MIC E. faecalis ATCC 29212
[16] = test system: A. baumannii ATCC 17978; test: MIC, broth microdilution; type: cell-based; conditions: Acinetobacter baumannii, ATCC17978, read-out: MIC A. baumannii ATCC 17978
[17] = test system: K. pneumoniae SE K13; test: MIC against fluoroquinolone-resistant clinical isolate; type: cell-based; conditions: Klebsiella pneumoniae, SEK13, read-out: MIC K. pneumoniae SE K13
[18] = target: human DNA topoisomerase IIα (Homo sapiens, UniProt P11388); test: human DNA topoisomerase IIα inhibition; type: biochemical; conditions: read-out: RA (residual activity) Human topo IIα
Chain of human DNA topoisomerase IIα (P11388 whole entry): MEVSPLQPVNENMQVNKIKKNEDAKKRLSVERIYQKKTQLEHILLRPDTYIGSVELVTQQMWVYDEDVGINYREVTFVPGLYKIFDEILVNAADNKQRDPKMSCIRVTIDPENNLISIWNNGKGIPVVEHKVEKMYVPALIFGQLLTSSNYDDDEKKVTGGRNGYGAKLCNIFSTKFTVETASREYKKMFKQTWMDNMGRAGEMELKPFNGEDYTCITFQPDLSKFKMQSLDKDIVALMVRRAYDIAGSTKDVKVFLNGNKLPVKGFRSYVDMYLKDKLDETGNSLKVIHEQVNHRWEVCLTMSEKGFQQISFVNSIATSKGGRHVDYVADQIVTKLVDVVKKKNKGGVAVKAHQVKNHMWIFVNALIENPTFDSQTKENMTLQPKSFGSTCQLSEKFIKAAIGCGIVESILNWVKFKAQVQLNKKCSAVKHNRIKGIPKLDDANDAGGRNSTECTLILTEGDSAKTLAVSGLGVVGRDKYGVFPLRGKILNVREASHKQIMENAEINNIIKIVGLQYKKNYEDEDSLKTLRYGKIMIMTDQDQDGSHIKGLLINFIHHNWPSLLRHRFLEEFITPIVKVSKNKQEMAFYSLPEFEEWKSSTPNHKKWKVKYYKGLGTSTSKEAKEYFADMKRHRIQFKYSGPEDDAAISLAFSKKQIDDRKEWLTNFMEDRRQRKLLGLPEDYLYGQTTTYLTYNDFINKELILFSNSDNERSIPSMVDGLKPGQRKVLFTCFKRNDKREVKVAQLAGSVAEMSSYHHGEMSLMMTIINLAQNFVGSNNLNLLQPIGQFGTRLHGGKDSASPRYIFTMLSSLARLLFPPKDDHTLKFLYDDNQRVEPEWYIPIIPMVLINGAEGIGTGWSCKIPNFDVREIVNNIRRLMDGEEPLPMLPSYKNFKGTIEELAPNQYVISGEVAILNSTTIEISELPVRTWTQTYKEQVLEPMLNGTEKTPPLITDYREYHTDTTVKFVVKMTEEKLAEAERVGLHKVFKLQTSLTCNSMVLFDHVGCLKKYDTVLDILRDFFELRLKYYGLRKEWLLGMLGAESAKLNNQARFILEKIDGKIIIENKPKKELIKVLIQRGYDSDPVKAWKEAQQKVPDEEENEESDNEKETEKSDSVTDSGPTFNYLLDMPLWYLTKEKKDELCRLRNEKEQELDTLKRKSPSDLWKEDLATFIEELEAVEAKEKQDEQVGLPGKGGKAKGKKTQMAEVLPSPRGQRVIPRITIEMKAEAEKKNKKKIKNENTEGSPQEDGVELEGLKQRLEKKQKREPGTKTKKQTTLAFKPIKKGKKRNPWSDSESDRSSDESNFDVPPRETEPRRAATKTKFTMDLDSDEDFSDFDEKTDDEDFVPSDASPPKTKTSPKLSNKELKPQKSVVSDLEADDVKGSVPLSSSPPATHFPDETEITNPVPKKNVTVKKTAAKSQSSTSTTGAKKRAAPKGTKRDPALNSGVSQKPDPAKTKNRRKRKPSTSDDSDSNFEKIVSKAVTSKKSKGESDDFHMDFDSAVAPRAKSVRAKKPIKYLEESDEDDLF

[19] = test system: K. pneumoniae K9–K25; test: MIC against fluoroquinolone-resistant clinical isolate; type: cell-based; conditions: Klebsiella pneumoniae, read-out: MIC K. pneumoniae K9–K25
[20] = test system: K. pneumoniae SE K14; test: as above; type: cell-based; conditions: Klebsiella pneumoniae, SEK14, read-out: MIC K. pneumoniae SE K14
[21] = test system: K. pneumoniae NCTC 13440; test: as above; type: cell-based; conditions: Klebsiella pneumoniae, NCTC13440, read-out: MIC K. pneumoniae NCTC 13440
[22] = test system: S. aureus ATCC 700699 (VISA); test: MIC, broth microdilution; type: cell-based; conditions: Staphylococcus aureus, ATCC700699|VISA, read-out: MIC S. aureus ATCC 700699 (VISA)
[23] = target: S. aureus topoisomerase IV (Staphylococcus aureus, UniProt P0C1S7); test: topoisomerase IV relaxation plate assay; type: biochemical; conditions: for remaining activity at 1 µM: read-out: RA (residual activity) S. aureus topo IV
Chain of S. aureus topoisomerase IV (P0C1S7 whole entry): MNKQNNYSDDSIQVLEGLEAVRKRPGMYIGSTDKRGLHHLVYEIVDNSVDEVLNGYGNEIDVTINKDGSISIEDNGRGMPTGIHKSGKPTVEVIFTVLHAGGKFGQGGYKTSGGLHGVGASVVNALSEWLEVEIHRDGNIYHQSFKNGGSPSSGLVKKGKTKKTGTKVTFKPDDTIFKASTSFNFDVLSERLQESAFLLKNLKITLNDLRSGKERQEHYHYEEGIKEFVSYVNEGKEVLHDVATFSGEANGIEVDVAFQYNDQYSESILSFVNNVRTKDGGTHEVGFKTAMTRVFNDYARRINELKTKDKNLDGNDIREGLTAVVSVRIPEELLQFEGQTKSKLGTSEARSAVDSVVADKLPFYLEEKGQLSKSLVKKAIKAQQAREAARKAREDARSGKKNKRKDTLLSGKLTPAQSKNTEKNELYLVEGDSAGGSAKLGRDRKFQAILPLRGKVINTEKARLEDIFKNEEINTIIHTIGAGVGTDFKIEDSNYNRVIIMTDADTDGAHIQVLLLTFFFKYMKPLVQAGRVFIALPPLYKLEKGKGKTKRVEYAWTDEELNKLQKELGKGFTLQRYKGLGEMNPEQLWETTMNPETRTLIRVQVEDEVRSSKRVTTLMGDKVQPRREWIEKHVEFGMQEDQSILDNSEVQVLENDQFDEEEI
Chain of S. aureus topoisomerase IV (P0C1U9 whole entry partner): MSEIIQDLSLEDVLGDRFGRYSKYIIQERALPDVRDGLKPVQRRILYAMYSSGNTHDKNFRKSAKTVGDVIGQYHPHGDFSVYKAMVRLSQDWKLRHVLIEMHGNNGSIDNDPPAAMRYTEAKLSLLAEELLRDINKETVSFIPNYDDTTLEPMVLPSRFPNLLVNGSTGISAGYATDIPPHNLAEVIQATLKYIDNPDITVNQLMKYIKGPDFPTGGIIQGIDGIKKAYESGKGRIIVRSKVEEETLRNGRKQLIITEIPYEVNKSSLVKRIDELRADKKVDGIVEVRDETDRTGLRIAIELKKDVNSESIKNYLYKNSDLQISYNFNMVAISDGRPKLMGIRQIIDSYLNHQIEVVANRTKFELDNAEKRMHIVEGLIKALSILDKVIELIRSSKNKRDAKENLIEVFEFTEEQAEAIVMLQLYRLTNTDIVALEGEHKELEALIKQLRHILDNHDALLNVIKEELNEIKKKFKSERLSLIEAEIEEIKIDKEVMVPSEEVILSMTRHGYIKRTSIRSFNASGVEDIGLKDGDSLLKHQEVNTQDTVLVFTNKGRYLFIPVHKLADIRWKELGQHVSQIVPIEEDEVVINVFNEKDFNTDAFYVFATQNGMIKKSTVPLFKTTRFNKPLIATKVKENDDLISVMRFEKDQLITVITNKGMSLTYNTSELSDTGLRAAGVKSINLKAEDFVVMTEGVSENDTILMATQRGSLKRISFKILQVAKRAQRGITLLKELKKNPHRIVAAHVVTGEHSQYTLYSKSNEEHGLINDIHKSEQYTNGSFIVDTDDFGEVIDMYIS

SMILES	MIC [1] [µg/mL]	MIC [2] [µg/mL]	MIC [3] [µg/mL]	MIC [4] [µg/mL]	MIC [5] [µg/mL]	MIC [6] [µg/mL]	IC50 [8] [nM]	MIC [9] [µg/mL]	remaining activity at 1 µM [10] [%]	MIC [11] [µg/mL]	MIC [14] [µg/mL]	MIC [15] [µg/mL]	MIC [16] [µg/mL]	IC50 [10] [nM]	MIC [22] [µg/mL]	other results
COC(=O)c1ccc(NC(=O)c2[nH]c(C)c(Cl)c2Cl)c(N2CCC[C@H](N)C2)c1.Cl [Compound 19c, (S)-1-(2-(3,4-Dichloro-5-methyl-1H-pyrrole-2-carboxamido)-5-(methoxycarbonyl)phenyl)piperidin-3-aminium chloride]	> 32	> 32	> 32	16	8	4	120	> 32	79	–	–	–	–	–	–	remaining activity at 1 µM [7]: 27%
Cc1[nH]c(C(=O)Nc2ccc(-c3n[nH]c(=O)o3)cc2N2CCOCC2)c(Cl)c1Cl [Compound 22e, 3,4-Dichloro-5-methyl-N-(2-morpholino-4-(5-oxo-4,5-dihydro-1,3,4-oxadiazol-2-yl)phenyl)-1H-pyrrole-2-carboxamide]	> 64	> 64	–	–	0.25 (≈ 0.57 µM)	> 64	–	–	–	> 64	0.25 (≈ 0.57 µM)	0.125 (≈ 0.285 µM)	> 64	1230	–	MIC [12]: 0.5 µg/mL (≈ 1.14 µM); MIC [13]: 0.5 µg/mL (≈ 1.14 µM); MIC [17]: > 64 µg/mL; remaining activity at 100 µM [18]: 93%; MIC [19]: > 64 µg/mL; MIC [20]: > 64 µg/mL; MIC [21]: > 64 µg/mL
Cc1[nH]c(C(=O)Nc2ccc(-c3n[nH]c(=O)o3)cc2NC2CCNCC2)c(Cl)c1Cl.Cl [Compound 23d, 4-((2-(3,4-Dichloro-5-methyl-1H-pyrrole-2-carboxamido)-5-(5-oxo-4,5-dihydro-1,3,4-oxadiazol-2-yl)phenyl)amino)piperidin-1-ium chloride]	> 64	> 64	–	–	> 64	2	–	–	–	> 64	> 64	> 64	> 64	1260	> 64	remaining activity at 10 µM [18]: 99%
Cc1[nH]c(C(=O)Nc2ccc(C(=O)NCC(=O)O)cc2N2CCN(C(=O)OC(C)(C)C)CC2)c(Cl)c1Cl [Compound 8a, (3-(4-(tert-Butoxycarbonyl)piperazin-1-yl)-4-(3,4-dichloro-5-methyl-1H-pyrrole-2-carboxamido)benzoyl)glycine]	–	–	–	–	–	–	84.1	–	93	–	–	–	–	–	–	remaining activity at 1 µM [23]: 22%; remaining activity at 1 µM [7]: 37%
Cc1[nH]c(C(=O)Nc2ccc(C(=O)O)cc2N2CCC[C@H](N)C2)c(Cl)c1Cl.Cl [Compound 20c, (S)-1-(5-Carboxy-2-(3,4-dichloro-5-methyl-1H-pyrrole-2-carboxamido)phenyl)piperidin-3-aminium chloride]	> 32	> 32	> 32	> 32	> 32	> 64	134	> 32	78	> 64	> 64	–	> 64	–	> 64	–
COC(=O)c1ccc(NC(=O)c2[nH]c(C)c(Cl)c2Cl)c(N2CCCC(CN)C2)c1.Cl (stereo not shown) [Compound 19i, (1-(2-(3,4-Dichloro-5-methyl-1H-pyrrole-2-carboxamido)-5-(methoxycarbonyl)phenyl)piperidin-3-yl)methanaminium chloride]	4	> 32	> 32	8	8	8	14.2	> 32	–	> 64	2	–	8	533	1	–
Cc1[nH]c(C(=O)Nc2ccc(C(=O)O)cc2N2CCN(c3ccccc3)CC2)c(Cl)c1Cl [Compound 18h, 4-(3,4-Dichloro-5-methyl-1H-pyrrole-2-carboxamido)-3-(4-phenylpiperazin-1-yl)benzoic acid]	> 64	> 64	–	–	> 64	> 64	–	–	–	> 64	> 64	> 64	> 64	–	> 64	remaining activity at 10 µM [10]: 85%
Cc1[nH]c(C(=O)Nc2ccc(C(=O)NCC(=O)O)cc2N2CC[C@H](N)C2)c(Cl)c1Cl [Compound 10b, (S)-1-(5-((Carboxymethyl)carbamoyl)-2-(3,4-dichloro-5-methyl-1H-pyrrole-2-carboxamido)phenyl)pyrrolidin-3-aminium chloride]	–	–	–	–	–	–	19.3	–	–	–	–	–	–	958	–	IC50 [23]: 2560 nM; remaining activity at 10 µM [18]: 82%; IC50 [7]: 112 nM
Cc1[nH]c(C(=O)Nc2ccc(C(=O)O)cc2N2CCNCC2)c(Cl)c1Cl.Cl [Compound 20a, 4-(5-Carboxy-2-(3,4-dichloro-5-methyl-1H-pyrrole-2-carboxamido)phenyl)piperazin-1-ium chloride]	> 32	> 32	> 32	> 32	> 32	> 64	–	> 32	106	> 64	> 64	–	> 64	–	> 64	remaining activity at 1 µM [23]: 92%; remaining activity at 40 µM [18]: 116%
COC(=O)c1ccc(NC(=O)c2[nH]c(C)c(Cl)c2Cl)c(N2CCNCC2)c1.Cl [Compound 19a, 4-(2-(3,4-Dichloro-5-methyl-1H-pyrrole-2-carboxamido)-5-(methoxycarbonyl)phenyl)piperazin-1-ium chloride]	> 32	> 32	> 32	16	> 32	–	100	> 32	102	–	–	–	–	–	–	remaining activity at 1 µM [23]: 95%; remaining activity at 1 µM [7]: 45%
Cc1[nH]c(C(=O)Nc2ccc(-c3n[nH]c(=O)o3)cc2OCc2ccccc2)c(Cl)c1Cl [Compound 39, N-(2-(Benzyloxy)-4-(5-oxo-4,5-dihydro-1,3,4-oxadiazol-2-yl)phenyl)-3,4-dichloro-5-methyl-1H-pyrrole-2-carboxamide]	> 32	> 32	–	–	> 32	> 32	–	–	101	> 32	> 32	> 32	> 32	–	> 32	remaining activity at 100 µM [18]: 104%
Cc1[nH]c(C(=O)Nc2ccc(C(=O)O)cc2NC2CCNCC2)c(Cl)c1Cl.Cl [Compound 20d, 4-((5-Carboxy-2-(3,4-dichloro-5-methyl-1H-pyrrole-2-carboxamido)phenyl)amino)piperidin-1-ium chloride]	> 64	> 64	–	–	> 64	> 64	–	–	–	> 64	> 64	> 64	> 64	–	> 64	remaining activity at 10 µM [10]: 89%
Cc1[nH]c(C(=O)Nc2ccc(-c3n[nH]c(=O)o3)cc2N2CCOC(C)C2)c(Cl)c1Cl (stereo not shown) [Compound 22f, 3,4-Dichloro-5-methyl-N-(2-(2-methylmorpholino)-4-(5-oxo-4,5-dihydro-1,3,4-oxadiazol-2-yl)phenyl)-1H-pyrrole-2-carboxamide]	> 64	> 64	–	–	> 64	> 64	–	–	–	> 64	> 64	1 (≈ 2.21 µM)	> 64	–	–	remaining activity at 100 µM [18]: 98%

Source: publication PMC11378028 (RSC Advances, 2024)
